In patent US12691101B2, “Compound and method for preventing or treating of respiratory diseases comprising the same as an active ingredient” (YONSEI UNIVERSITY, UNIVERSITY - INDUSTRY FOUNDATION (UIF), priority 2019, dated 2026):

How the values were obtained:
[1] = target: T1, human wild-type (WT)-pendrin (Homo sapiens, UniProt O43511); assay: Pendrin-mediated Cl^−/I^− exchange activity, YFP fluorescence in CHO-K1 cells; assay type: cell-based; conditions: for inhibition at 30 µM: CHO-K1, 30 μM, read-out: Pendrin inhibitory activity at 30 μM (%); for IC50: compounds showing pendrin inhibitory activity of 50% or more at 30 μM, read-out: IC50
T1 construct: expressed in transfected cells
T1 sequence (O43511 1-780): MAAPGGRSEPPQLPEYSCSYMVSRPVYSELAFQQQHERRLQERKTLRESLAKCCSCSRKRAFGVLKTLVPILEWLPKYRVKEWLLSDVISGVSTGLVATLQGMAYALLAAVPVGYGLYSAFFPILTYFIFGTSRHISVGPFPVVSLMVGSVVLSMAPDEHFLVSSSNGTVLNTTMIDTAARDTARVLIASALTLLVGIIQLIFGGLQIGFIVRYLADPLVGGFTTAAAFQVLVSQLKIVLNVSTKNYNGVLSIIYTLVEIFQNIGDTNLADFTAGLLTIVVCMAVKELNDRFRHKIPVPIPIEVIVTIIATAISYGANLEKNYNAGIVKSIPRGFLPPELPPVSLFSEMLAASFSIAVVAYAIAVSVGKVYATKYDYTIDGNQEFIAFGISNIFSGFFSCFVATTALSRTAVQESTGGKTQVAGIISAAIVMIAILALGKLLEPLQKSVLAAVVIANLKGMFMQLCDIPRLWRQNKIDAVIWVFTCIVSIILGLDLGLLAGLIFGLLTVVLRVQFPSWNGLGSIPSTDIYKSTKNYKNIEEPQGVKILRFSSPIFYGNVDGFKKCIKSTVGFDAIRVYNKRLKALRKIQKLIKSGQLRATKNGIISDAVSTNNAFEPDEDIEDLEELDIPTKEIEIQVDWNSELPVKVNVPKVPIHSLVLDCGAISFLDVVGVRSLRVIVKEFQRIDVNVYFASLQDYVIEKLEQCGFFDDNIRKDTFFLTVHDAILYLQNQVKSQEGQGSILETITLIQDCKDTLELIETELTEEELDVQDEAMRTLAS

HBE cells = conditions: IL-13-treated HBE cells; cited from earlier work

| inhibition at 30 µM [1] [%] | SMILES | further results |
| --- | --- | --- |
| 29.7 | CCCc1ccc(C(=O)NC(=Cc2cccs2)C(=O)O)cc1 [G30, 2-(4-Propylbenzamido)-3-(thiophen-2-yl)acrylate] | – |
| – | Cc1ncsc1C=C(NC(=O)c1ccc(C(C)(C)C)cc1)C(=O)O [G32, 2-(4-(tert-butyl)benzamido)-3-(4-methylthiazol-5-yl)acrylate] | Pendrin inhibitory activity at 30 μM (%) ([1]; 30 μM): 2.1% |
| 5.4 | CC(C)(C)c1ccc(C(=O)NC(=Cc2cc3ccccc3[nH]2)C(=O)O)cc1 [G33, 2-(4-(tert-butyl)benzamido)-3-(1H-indol-2-yl)acrylate] | – |
| 38.2 | CCCc1ccc(C(=O)NC(=Cc2ccco2)C(=O)O)cc1 [G34, 3-(Furan-2-yl)-2-(4-propylbenzamido)acrylate] | – |
| 94 | CCCCCc1ccc(C(=O)NC(=Cc2ccco2)C(=O)O)cc1 [G35, 3-(Furan-2-yl)-2-(4-pentylbenzamido)acrylate] | IC50 [1]: 6.1 ± 0.88 µM |
| 97.9 | CCCCCCc1ccc(C(=O)NC(=Cc2cccs2)C(=O)O)cc1 [G37, 2-(4-Hexylbenzamido)-3-(thiophen-2-yl)acrylate] | IC50 [1]: 8.2 ± 0.79 µM |
| 2.5 | O=C(O)C(=Cc1cccs1)NC(=O)c1ccc2c(c1)CCC2 [G38, 2-(2,3-Dihydro-1H-indene-5-carboxamido)-3-(thiophen-2-yl)acrylate] | – |
| 3.2 | O=C(O)C(=Cc1cccs1)NC(=O)c1ccc(OC(F)F)cc1 [G39, 2-(4-(Difluoromethoxy)benzamido)-3-(thiophen-2-yl)acrylate] | – |
| 88.6 | CCCCCc1ccc(C(=O)NC(=Cc2cccs2)C(=O)O)cc1 [G40, 2-(4-Pentylbenzamido)-3-(thiophen-2-yl)acrylate] | IC50 [1]: 13.4 ± 1.69 µM |
| 2.7 | Cc1cc(C)cc(C(=O)NC(=Cc2cccs2)C(=O)O)c1 [G42, 2-(3,5-Dimethylbenzamido)-3-(thiophen-2-yl)acrylate] | – |
| – | Cn1nc(COc2cccc(F)c2)c2c1CCN(C(=O)Nc1ccc(Cl)cc1)C2 [PDSinh-A01] | ASL depth (HBE cells): significantly increased |

| SMILES | inhibition at 30 µM [1] [%] | further results |
| --- | --- | --- |
| CCCCOc1ccc(C(=O)NC(=Cc2cccs2)C(=O)O)cc1 [G36, 2-(4-Butoxybenzamido)-3-(thiophen-2-yl)acrylate] | 4.8 | – |
| CCCCOc1ccc(C(=O)NC(=Cc2ccc[nH]2)C(=O)O)cc1 [G41, 2-(4-Butoxybenzamido)-3-(1H-pyrrol-2-yl)acrylate] | 25.1 | – |
